# Test results: patent US7601336B2, “Pharmaceutical aerosol composition” (Chiesi Farmaceutici S.p.A., priority 1997, dated 2009)
# Like-named read-outs stand apart in the source and are kept apart here.
# Tests used:
# [1] = Aerodynamic particle size distribution by Andersen Cascade Impactor (ACI), ten cumulative actuations, drug on plates by HPLC; format: physicochemical
# Procedure: The aerosol compositions of the invention described below were prepared by the following method. The required components of a composition were added into a can in the following order: drug, non-volatile additive, absolute ethanol. After crimping of the valve on to the can, the propellant was added through the valve. The weight gain of the can after each component was added was recorded to allow the percentage, by weight, of each component in the formulation to be calculated. The aerodynamic particle size distribution of each formulation was characterized using a Multistage Cascade Impactor according to the procedure described in the European Pharmacopoeia 2nd edition, 1995, part V.5.9.1. pages 15-17. In this specific case an Andersen Cascade Impactor (ACI) was used. Results represented were obtained from ten cumulative actuations or a formulation. Deposition of the drug on each ACI plate was determined by high pressure liquid chromatography. The mass median aerodynamic diameter (MMAD) and geometric standard deviation (GSD) were calculated from plots of the cumulative percentage undersize of drug collected on each ACI plate (probit scale), against the upper cut off diameter for each respective ACI plate (log10 scale). The fine particle dose of each formulation was determined from the mass of drug collected on Stages 2 through to Filter (<5.8 μm) divided by the number of actuations per experiment.
# [2] = BDP as a solution in HFA 134a (formulations of EP 0553298), reported in literature; cited from earlier work
# [3] = BDP 10 mg/10 ml, ethanol 7.9%, HFA 134a, actuator orifice 0.25 mm
# [4] = BDP 10 mg/10 ml, ethanol 12.9-13.0%, HFA 134a, actuator orifice 0.25 mm
# [5] = BDP 10 mg/10 ml, ethanol 12.9 ± 0.1% (w/w), HFA 134a, propylene glycol 0.0% (w/w), actuator orifice 0.42 mm
# [6] = BDP 10 mg/10 ml, ethanol 12.9 ± 0.1% (w/w), HFA 134a, propylene glycol 1.1% (w/w), actuator orifice 0.42 mm
# [7] = BDP 10 mg/10 ml, ethanol 12.9 ± 0.1% (w/w), HFA 134a, propylene glycol 3.2% (w/w), actuator orifice 0.42 mm
# [8] = BDP 10 mg/10 ml, ethanol 12.9 ± 0.1% (w/w), HFA 134a, propylene glycol 6.8% (w/w), actuator orifice 0.42 mm
# [9] = BDP 10 mg/10 ml, ethanol 13.6%, H2O 0.5%, HFA 134a, actuator orifice 0.33 mm
# [10] = BDP 10 mg/10 ml, ethanol 13.7%, H2O 0.1%, HFA 134a, actuator orifice 0.33 mm
# [11] = BDP 20 mg/10 ml, ethanol 7.9%, HFA 134a, actuator orifice 0.25 mm
# [12] = BDP 20 mg/10 ml, ethanol 13.0%, HFA 134a, actuator orifice 0.25 mm
# [13] = BDP 50 mg/10 ml, ethanol 14.9%, H2O 0.1%, HFA 134a, actuator orifice 0.33 mm
# [14] = BDP 50 mg/10 ml, ethanol 14.9%, H2O 0.5%, HFA 134a, actuator orifice 0.33 mm
# [15] = BDP 50 mg/10 ml, ethanol 14.9 ± 0.1% (w/w), HFA 134a, PEG 0.0% (w/w), actuator orifice 0.33 mm
# [16] = BDP 50 mg/10 ml, ethanol 14.9 ± 0.1% (w/w), HFA 134a, PEG 400 1.1% (w/w), actuator orifice 0.33 mm
# [17] = BDP 50 mg/10 ml, ethanol 14.9 ± 0.1% (w/w), HFA 134a, PEG 8000 1.0% (w/w), actuator orifice 0.33 mm
# [18] = BDP 50 mg/10 ml, ethanol 15.0 ± 0.2% (w/w), HFA 134a, glycerol 0.0% (w/w), actuator orifice 0.25 mm
# [19] = BDP 50 mg/10 ml, ethanol 15.0 ± 0.2% (w/w), HFA 134a, glycerol 0.0% (w/w), actuator orifice 0.33 mm
# [20] = BDP 50 mg/10 ml, ethanol 15.0 ± 0.2% (w/w), HFA 134a, glycerol 1.0% (w/w), actuator orifice 0.25 mm
# [21] = BDP 50 mg/10 ml, ethanol 15.0 ± 0.2% (w/w), HFA 134a, glycerol 1.0% (w/w), actuator orifice 0.33 mm
# [22] = BDP 50 mg/10 ml, ethanol 15.0 ± 0.2% (w/w), HFA 134a, glycerol 1.3% (w/w), actuator orifice 0.25 mm
# [23] = BDP 50 mg/10 ml, ethanol 15.0 ± 0.2% (w/w), HFA 134a, glycerol 1.3% (w/w), actuator orifice 0.33 mm
# [24] = BDP 50 mg/10 ml, ethanol 15.0 ± 0.2% (w/w), HFA 134a, glycerol 1.6% (w/w), actuator orifice 0.25 mm
# [25] = BDP 50 mg/10 ml, ethanol 15.0 ± 0.2% (w/w), HFA 134a, glycerol 1.6% (w/w), actuator orifice 0.33 mm
# [26] = BDP 50 mg/10 ml, ethanol 15.0 ± 0.2% (w/w), HFA 227 fill to 12 ml, 0% (w/w) glycerol, actuator orifice 0.33 mm
# [27] = BDP 50 mg/10 ml, ethanol 15.0 ± 0.2% (w/w), HFA 227 fill to 12 ml, 1.42% (w/w) glycerol, actuator orifice 0.33 mm
# [28] = BDP 50 mg/10 ml, ethanol 15.2 ± 0.4% (w/w), HFA 134a, propylene glycol 0.0% (w/w), actuator orifice 0.42 mm
# [29] = BDP 50 mg/10 ml, ethanol 15.2 ± 0.4% (w/w), HFA 134a, propylene glycol 0.7% (w/w), actuator orifice 0.42 mm
# [30] = BDP 50 mg/10 ml, ethanol 15.2 ± 0.4% (w/w), HFA 134a, propylene glycol 2.8% (w/w), actuator orifice 0.42 mm
# [31] = BDP 50 mg/10 ml, ethanol 15.2 ± 0.4% (w/w), HFA 134a, propylene glycol 6.3% (w/w), actuator orifice 0.42 mm
# [32] = combination BDP 50 mg/10 ml + Salbutamol base 20 mg/10 ml, ethanol 15.4 ± 0.2% (w/w), HFA 134a, glycerol 0%, oleic acid 0%, actuator exit orifice 0.33 mm
# [33] = combination BDP 50 mg/10 ml + Salbutamol base 20 mg/10 ml, ethanol 15.4 ± 0.2% (w/w), HFA 134a, glycerol 0%, oleic acid 0.3%, actuator exit orifice 0.33 mm
# [34] = combination BDP 50 mg/10 ml + Salbutamol base 20 mg/10 ml, ethanol 15.4 ± 0.2% (w/w), HFA 134a, glycerol 0%, oleic acid 1.3%, actuator exit orifice 0.30 mm
# [35] = combination BDP 50 mg/10 ml + Salbutamol base 20 mg/10 ml, ethanol 15.4 ± 0.2% (w/w), HFA 134a, glycerol 1.2%, oleic acid 0.3%, actuator exit orifice 0.30 mm
smiles,measurement,setting,value
"CCC(=O)OCC(=O)[C@@]1(OC(=O)CC)[C@@H](C)C[C@H]2[C@@H]3CCC4=CC(=O)C=C[C@]4(C)[C@@]3(Cl)[C@@H](O)C[C@@]21C [BDP, beclomethasone dipropionate]",Fine particle dose,[1]; [3],31.1 µg
same,MMAD ± GSD,[1]; [3],0.8 ± 1.8
same,Mean emitted dose,[1]; [3],44.7 µg
same,Fine particle dose,[1]; [4],24.5 µg
same,MMAD ± GSD,[1]; [4],0.9 ± 2.0
same,Mean emitted dose,[1]; [4],45.1 µg
same,Fine particle dose,[1]; [5],10.3 µg
same,MMAD ± GSD,[1]; [5],1.1 ± 2.3 μm
same,Mean emitted dose,[1]; [5],41.8 µg
same,Fine particle dose,[1]; [6],9.3 µg
same,MMAD ± GSD,[1]; [6],1.6 ± 3.4 μm
same,Mean emitted dose,[1]; [6],44.0 µg
same,Fine particle dose,[1]; [7],7.3 µg
same,MMAD ± GSD,[1]; [7],2.9 ± 4.1 μm
same,Mean emitted dose,[1]; [7],43.6 µg
same,Fine particle dose,[1]; [8],4.9 µg
same,MMAD ± GSD,[1]; [8],4.6 ± 3.9 μm
same,Mean emitted dose,[1]; [8],44.9 µg
same,Fine particle dose,[1]; [9],12.7 µg
same,MMAD ± GSD,[1]; [9],1.0 ± 2.1 μm
same,Mean emitted dose,[1]; [9],42.9 µg
same,Fine particle dose,[1]; [10],14.9 µg
same,MMAD ± GSD,[1]; [10],1.0 ± 2.2 μm
same,Mean emitted dose,[1]; [10],43.2 µg
same,Fine particle dose,[1]; [11],63.1 µg
same,MMAD ± GSD,[1]; [11],1.0 ± 1.8
same,Mean emitted dose,[1]; [11],84.8 µg
same,Fine particle dose,[1]; [12],46.2 µg
same,MMAD ± GSD,[1]; [12],1.0 ± 1.9
same,Mean emitted dose,[1]; [12],87.6 µg
same,Fine particle dose,[1]; [13],67.4 µg
same,MMAD ± GSD,[1]; [13],1.8 ± 2.2 μm
same,Mean emitted dose,[1]; [13],222.1 µg
same,Fine particle dose,[1]; [14],60.2 µg
same,MMAD ± GSD,[1]; [14],1.7 ± 2.2 μm
same,Mean emitted dose,[1]; [14],215.1 µg
same,Fine particle dose,[1]; [15],67.4 µg
same,MMAD ± GSD,[1]; [15],1.8 ± 2.2 μm
same,Mean emitted dose,[1]; [15],222.1 µg
same,Fine particle dose,[1]; [16],55.6 µg
same,MMAD ± GSD,[1]; [16],2.5 ± 2.2 μm
same,Mean emitted dose,[1]; [16],218.9 µg
same,Fine particle dose,[1]; [17],55.6 µg
same,MMAD ± GSD,[1]; [17],2.5 ± 2.2 μm
same,Mean emitted dose,[1]; [17],215.0 µg
same,Fine particle dose,[1]; [18],105.9 µg
same,MMAD ± GSD,[1]; [18],1.4 ± 1.9 μm
same,Mean emitted dose,[1]; [18],205.8 µg
same,Fine particle dose,[1]; [19],67.4 µg
same,MMAD ± GSD,[1]; [19],1.8 ± 2.2 μm
same,Mean emitted dose,[1]; [19],222.1 µg
same,Fine particle dose,[1]; [20],94.4 µg
same,MMAD ± GSD,[1]; [20],2.4 ± 2.0 μm
same,Mean emitted dose,[1]; [20],218.3 µg
same,Fine particle dose,[1]; [21],55.9 µg
same,MMAD ± GSD,[1]; [21],2.8 ± 2.2 μm
same,Mean emitted dose,[1]; [21],227.9 µg
same,Fine particle dose,[1]; [22],100.3 µg
same,MMAD ± GSD,[1]; [22],2.6 ± 2.0 μm
same,Mean emitted dose,[1]; [22],220.8 µg
same,Fine particle dose,[1]; [23],54.3 µg
same,MMAD ± GSD,[1]; [23],3.1 ± 2.3 μm
same,Mean emitted dose,[1]; [23],228.4 µg
same,Fine particle dose,[1]; [24],96.6 µg
same,MMAD ± GSD,[1]; [24],2.7 ± 2.0 μm
same,Mean emitted dose,[1]; [24],228.0 µg
same,Fine particle dose,[1]; [25],50.9 µg
same,MMAD ± GSD,[1]; [25],3.1 ± 2.3 μm
same,Mean emitted dose,[1]; [25],231.7 µg
same,FPD,[1]; [26],62.1 µg
same,GSD,[1]; [26],2.6
same,MMAD,[1]; [26],2.2 μm
same,Mean emitted dose,[1]; [26],221.25 µg
same,FPD,[1]; [27],43.5 µg
same,GSD,[1]; [27],2.4
same,MMAD,[1]; [27],4.1 μm
same,Mean emitted dose,[1]; [27],230.5 µg
same,Fine particle dose,[1]; [28],41.6 µg
same,MMAD ± GSD,[1]; [28],1.7 ± 2.3 μm
same,Mean emitted dose,[1]; [28],209.1 µg
same,Fine particle dose,[1]; [29],41.1 µg
same,MMAD ± GSD,[1]; [29],2.1 ± 2.7 μm
same,Mean emitted dose,[1]; [29],218.4 µg
same,Fine particle dose,[1]; [30],32.1 µg
same,MMAD ± GSD,[1]; [30],3.3 ± 3.2 μm
same,Mean emitted dose,[1]; [30],204.2 µg
same,Fine particle dose,[1]; [31],25.2 µg
same,MMAD ± GSD,[1]; [31],4.4 ± 3.8 μm
same,Mean emitted dose,[1]; [31],242.6 µg
same,Emitted dose,[1]; [32],208.9 µg
same,FPD,[1]; [32],67.8 µg
same,GSD,[1]; [32],2.4
same,MMAD,[1]; [32],1.7 μm
same,Emitted dose,[1]; [33],212.7 µg
same,FPD,[1]; [33],60.6 µg
same,GSD,[1]; [33],2.3
same,MMAD,[1]; [33],2.2 μm
same,Emitted dose,[1]; [34],212.5 µg
same,FPD,[1]; [34],58.5 µg
same,GSD,[1]; [34],2.2
same,MMAD,[1]; [34],2.4 μm
same,Emitted dose,[1]; [35],210.8 µg
same,FPD,[1]; [35],63.3 µg
same,GSD,[1]; [35],2.1
same,MMAD,[1]; [35],2.9 μm
same,MMAD,[2],1.1 μm
